Results reported in ChEMBL document CHEMBL1909046, “DrugMatrix in vitro pharmacology data”.

Experiments:
[1] = DRUGMATRIX: beta-Lactamase enzyme inhibition (substrate: Nitrocefin); set-up: species or system Bacillus cereus; settings: Not Active = under 50% inhibition at 10 µM
[2] = biological target: T1, Neutrophil elastase (Homo sapiens, UniProt P08246); assay type: tissue-based;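 further: inhibition of neutrophil elastase enzyme activity, measured with a p-nitroanilide-linked peptide substrate; in other assays of this panel Not Active means under 50% inhibition at 10 µM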
T1 sequence (P08246 whole entry): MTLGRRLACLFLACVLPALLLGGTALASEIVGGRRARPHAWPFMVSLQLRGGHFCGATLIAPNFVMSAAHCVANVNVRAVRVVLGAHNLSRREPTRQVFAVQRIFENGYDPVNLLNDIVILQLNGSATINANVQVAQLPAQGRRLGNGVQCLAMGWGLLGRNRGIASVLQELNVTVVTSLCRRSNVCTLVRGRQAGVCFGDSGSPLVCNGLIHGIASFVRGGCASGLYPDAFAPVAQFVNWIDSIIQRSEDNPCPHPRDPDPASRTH

[3] = DRUGMATRIX: Calcium Channel Type L, Phenylalkylamine radioligand binding (ligand: [3H] (-)-Desmethoxyverapamil (D-888)); assay type: cell membranes, Rattus norvegicus, Wistar, Brain, Membrane; settings: Not Active = under 50% inhibition at 10 µM
[4] = biological target: Platelet-activating factor receptor (Homo sapiens, UniProt P25105); test: biochemical; assay type: tissue-based; settings: platelet; further: in other assays of this panel Not Active means under 50% inhibition at 10 µM
[5] = biological target: T2, Leukotriene C4 synthase (Cavia porcellus, UniProt A6XA80); assay type: tissue-based, Lung;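 further: enzyme inhibition assay of leukotriene C4 synthase, using LTA4 as the substrate; in other assays of this panel Not Active means under 50% inhibition at 10 µM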
T2 sequence (A6XA80 whole entry): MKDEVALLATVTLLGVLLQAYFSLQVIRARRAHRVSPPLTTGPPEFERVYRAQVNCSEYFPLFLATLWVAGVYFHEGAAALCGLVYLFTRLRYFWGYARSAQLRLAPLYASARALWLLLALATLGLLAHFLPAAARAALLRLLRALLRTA

[6] = DRUGMATRIX: GABAA, Chloride Channel, TBOB radioligand binding (ligand: [3H] TBOB); assay type: cell membranes, Rattus norvegicus, Wistar, Cerebral cortex, Membrane; settings: Not Active = under 50% inhibition at 10 µM
[7] = biological target: T3, Interstitial collagenase (Homo sapiens, UniProt P03956); assay type: tissue-based, Rheumatoid synovial fibroblasts;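 further: MMP-1 enzyme inhibition assay using a peptide substrate; in other assays of this panel Not Active means under 50% inhibition at 10 µM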
T3 sequence (P03956 whole entry): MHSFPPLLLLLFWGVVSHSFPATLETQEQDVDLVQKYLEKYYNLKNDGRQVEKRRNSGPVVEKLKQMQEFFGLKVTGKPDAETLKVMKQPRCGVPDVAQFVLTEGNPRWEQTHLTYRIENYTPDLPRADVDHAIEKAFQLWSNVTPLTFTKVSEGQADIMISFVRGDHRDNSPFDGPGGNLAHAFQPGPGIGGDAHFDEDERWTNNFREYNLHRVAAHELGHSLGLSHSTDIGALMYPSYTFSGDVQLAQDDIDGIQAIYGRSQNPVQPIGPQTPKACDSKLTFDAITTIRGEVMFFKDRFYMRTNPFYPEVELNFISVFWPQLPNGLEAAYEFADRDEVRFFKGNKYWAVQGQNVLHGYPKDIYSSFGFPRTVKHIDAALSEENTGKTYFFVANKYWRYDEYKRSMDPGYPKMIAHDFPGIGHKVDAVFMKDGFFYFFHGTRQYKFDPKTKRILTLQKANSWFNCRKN

Chain of Platelet-activating factor receptor (P25105 whole entry): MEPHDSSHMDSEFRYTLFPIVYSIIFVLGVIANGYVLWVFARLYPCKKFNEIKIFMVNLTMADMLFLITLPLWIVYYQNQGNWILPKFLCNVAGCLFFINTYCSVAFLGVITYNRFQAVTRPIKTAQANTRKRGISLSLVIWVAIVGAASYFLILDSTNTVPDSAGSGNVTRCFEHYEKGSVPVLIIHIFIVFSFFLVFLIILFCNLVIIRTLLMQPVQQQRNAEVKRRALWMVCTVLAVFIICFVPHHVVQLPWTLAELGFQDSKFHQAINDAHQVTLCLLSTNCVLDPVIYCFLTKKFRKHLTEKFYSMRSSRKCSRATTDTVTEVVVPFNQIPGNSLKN

| Compound | IC50 [1] | Ki [1] | IC50 [2] | IC50 [3] | Ki [3] | IC50 [4] | IC50 [5] | IC50 [6] | Ki [6] | IC50 [7] | Ki [2] | Ki [4] | Ki [5] | Ki [7] | IC50 ([3]; read-out: IC50) | Ki ([3]; read-out: Ki) |
| --- | --- | --- | --- | --- | --- | --- | --- | --- | --- | --- | --- | --- | --- | --- | --- | --- |
| Nn1nnc2ccccc21 | Not Active | Not Active | Not Active | Not Active | Not Active | Not Active | Not Active | Not Active | Not Active | Not Active |  |  |  |  |  |  |
| COc1ccccc1OCC(O)COC(N)=O (centres undefined) [METHOCARBAMOL] | Not Active | Not Active | Not Active | Not Active | Not Active | Not Active | Not Active | Not Active | Not Active | Not Active |  |  |  |  |  |  |
| CC(C(=O)O)c1ccc(-c2ccccc2)c(F)c1 (centres undefined) [FLURBIPROFEN] | Not Active | Not Active | Not Active | Not Active | Not Active | Not Active | Not Active | Not Active | Not Active | Not Active |  |  |  |  |  |  |
| Cc1c(F)c(N2CCNC(C)C2)cc2c1c(=O)c(C(=O)O)cn2C1CC1 (centres undefined) [GREPAFLOXACIN] | Not Active | Not Active | Not Active | Not Active | Not Active | Not Active | Not Active | Not Active | Not Active | Not Active |  |  |  |  |  |  |
| Oc1ccccc1O [CATECHOL] | Not Active | Not Active | Not Active | Not Active | Not Active | Not Active | Not Active | Not Active | Not Active | Not Active |  |  |  |  |  |  |
| O=P1(N(CCCl)CCCl)NCCCO1 (centres undefined) [CYCLOPHOSPHAMIDE ANHYDROUS] | Not Active | Not Active | Not Active | Not Active | Not Active | Not Active | Not Active | Not Active | Not Active | Not Active |  |  |  |  |  |  |
| INSULIN HUMAN | Not Active | Not Active | Not Active | Not Active | Not Active | Not Active | Not Active | Not Active | Not Active | Not Active | Not Active | Not Active | Not Active | Not Active |  |  |
| CS(=O)(=O)OCCCCOS(C)(=O)=O [BUSULFAN] | Not Active | Not Active | Not Active | Not Active | Not Active | Not Active | Not Active | Not Active | Not Active | Not Active |  |  |  |  |  |  |
| CC(C)(CO)C(O)C(=O)NCCCO (centres undefined) [PANTHENOL] | Not Active | Not Active | Not Active | Not Active | Not Active | Not Active | Not Active | Not Active | Not Active | Not Active |  |  |  |  |  |  |
| O=C(O)c1cc(=O)c2c(OCC(O)COc3cccc4oc(C(=O)O)cc(=O)c34)cccc2o1 [CROMOLYN] | Not Active | Not Active | Not Active | Not Active | Not Active | Not Active | Not Active | Not Active | Not Active | Not Active |  |  |  |  |  |  |
| O=C(/C=C/c1ccc(O)c(O)c1)OCCc1ccccc1 [CAFFEIC ACID PHENETHYL ESTER] | Not Active | Not Active | Not Active | Not Active | Not Active | Not Active | Not Active | Not Active | Not Active | Not Active |  |  |  |  |  |  |
| Nc1nc(Cl)nc2c1ncn2[C@H]1C[C@H](O)[C@@H](CO)O1 [CLADRIBINE] | Not Active | Not Active | Not Active | Not Active | Not Active | Not Active | Not Active | Not Active | Not Active | Not Active |  |  |  |  |  |  |
| CC[C@H](C)C(=O)O[C@H]1C[C@@H](C)C=C2C=C[C@H](C)[C@H](CC[C@@H]3C[C@@H](O)CC(=O)O3)[C@H]21 [LOVASTATIN] | Not Active | Not Active | Not Active |  |  | Not Active | Not Active | Not Active | Not Active | Not Active |  |  |  |  | 6.32 µM | 6.14 µM |
| CC[C@H](C)C(=O)O[C@H]1C[C@H](O)C=C2C=C[C@H](C)[C@H](CC[C@@H](O)C[C@@H](O)CC(=O)O)[C@H]21 [PRAVASTATIN] | Not Active | Not Active | Not Active | Not Active | Not Active | Not Active | Not Active | Not Active | Not Active | Not Active |  |  |  |  |  |  |
| CCOC(=O)n1ccn(C)c1=S [CARBIMAZOLE] | Not Active | Not Active | Not Active | Not Active | Not Active | Not Active | Not Active | Not Active | Not Active | Not Active |  |  |  |  |  |  |
| C#C[C@]1(O)CC[C@H]2[C@@H]3CCC4=Cc5oncc5C[C@]4(C)[C@H]3CC[C@@]21C [DANAZOL] | Not Active | Not Active | Not Active |  |  | Not Active | Not Active | Not Active | Not Active | Not Active |  |  |  |  | 14.6 µM | 14.2 µM |
